The subject of assay [1] is HCT116 (MTAP WT) cell line. Description: Cell proliferation inhibition in wild-type control cells, WST-1 assay. The format is cell-based. The following applies: Homo sapiens, HCT-116, 120 hours of drug treatment, maximum concentration 10 µM, read-out: HCT116 WT (IC50, cell proliferation inhibited by 50%). On the procedure:
(§1) The HCT116 (MTAP del) cell line, which is a colorectal cancer cell line with deletion of MTAP gene, was treated with a compound according to an embodiment of the present application as a MAT2A inhibitor, and after culturing for 120 hours, the change in the number of cells was measured with a WST-1 assay reagent. The WST-1 assay is an assay that measures the number of cells by measuring the generation of a chromogenic substance called formazan from tetrazolium salts by intracellular mitochondrial dehydrogenase. In addition, as a control group, a wild-type colorectal cancer HCT116 (MTAP WT) cell line containing the MTAP gene was used to perform the experiment in the same manner as the experimental group.
(§2) Cell lines and reagents: HCT116 (MTAP WT (catalog number HD PAR-034), MTAP del (catalog number HD R02-033)) cell lines were purchased from Horizon Discovery (USA), and RPMI1640 medium (catalog number 22400-093), FBS (Fetal Bovine serum, catalog number 16000044), and Penicillin/Streptomycin (catalog number 15140-122) were purchased from GIBCO (USA). WST-1 (catalog number EZ-BULK150) was purchased from Dogen (Korea).
(§3) Experimental procedure: HCT116 (MTAP WT, MTAP del) cell lines were dispensed into a 96-well plate at a concentration of 1,000 cells/well in RPMI1640 culture medium containing 10% FBS and 1% Penicillin/Streptomycin, and allowed to attach for 24 hours. When the cells were attached to the plate, the drug was diluted 4-fold from a maximum concentration of 10 µM and treated on the cells. After 120 hours of drug treatment, 20 µL of WST-1 solution was treated for 2 hours, and absorbance at 450 nm was measured using SpectraMax M4 (Molecular Devices). Data analysis was calculated by taking the DMSO control group value as 100%. For the IC50 value, the concentration at which cell proliferation is inhibited by 50% was calculated through interpolation using a 4-parameter fit of the dose-response curve using the GraphPad Prism 8.4.3 program. The cancer cell proliferation inhibitory ability and selectivity in MTAP-deficient cancer cells of the compounds according to an embodiment of the present application are described in Table 3 (+++: 1 to 100 nM, ++: more than 100 to 1,000 nM, +: more than 1 to 10 µM, -: more than 10 µM).
Background: Formazan colour is commonly taken as a measure of viable cells.

A further assay has as its target T1, MAT2A (Homo sapiens, UniProt P31153).
T1 construct: purchased BPS Bioscience (USA) 71401
Description: MAT2A inhibitory activity, colorimetric phosphate detection (PiColorLock) enzyme assay. The format is biochemical. The following applies: Test Condition 1 or 2 (not stated which per compound); absorbance at 630 nm. On the procedure:
In vitro assay: Methionine and adenosine triphosphate (ATP) are converted into S-adenosylmethionine (SAM) and inorganic phosphate (pi) via the catalytic action of methionine adenosyltransferase 2A (MAT2A). The produced pi is detected by the PiColorLock™ Phosphate Detection Reagent, which is a colorimetric assay, and the activity of MAT2A can be evaluated according to the amount of pi generated during the enzyme reaction. Each compound was evaluated under Test Condition 1 or 2 as described below.
• Concentration of MAT2A inhibitor: maximum concentration of 50 µM, 5-fold dilution (7 groups in total) • MAT2A concentration: 12 ng/µL • ATP and Met concentration: 100 µM, 80 µM
• Concentration of MAT2A inhibitor: maximum concentration of 1 µM, 3-fold dilution (7 groups in total) • MAT2A concentration: 4 ng/µL • ATP and Met concentration: 300 µM, 150 µM • Reagents: Methionine (catalog number M5308) and ATP (catalog number A2383) were purchased from Sigma-Aldrich (USA). MAT2A (catalog number 71401) was purchased from BPS Bioscience (USA), and PiColorLock™ Phosphate Detection Reagent (catalog number 303-0030) was purchased from Novus (USA).
Assay buffer composition: 50 mM Tris-HCl pH 8.0, 50 mM KCI, 15 mM MgCl2, 0.3 mM EDTA, 0.005 % (w/v) BSA
Experimental procedure: Each compound was diluted 5-fold or 3-fold based on the maximum concentration (5 mM or 1 mM or 0.1 mM) using DMSO. The diluted compounds were diluted 20-fold using assay buffer, and then mixed at a volume ratio of 1:2 with MAT2A (30 ng/µL or 10 ng/µL) diluted with assay buffer and treated for 30 minutes at room temperature. The negative control group is a group untreated with both the MAT2A enzyme and the compound according to an embodiment of the present application, and the positive control group is a group treated only with the MAT2A enzyme and untreated with the compound according to an embodiment of the present application.
In each well of a 384-well plate, 30 µL of the mixed solution and 20 µL of a 1:1 mixed solution of ATP (0.5 mM or 1.5 mM) and Met (0.4 mM or 0.75 mM) were mixed and then treated for 1 hour at room temperature. After the enzyme reaction, 13 µL of a 100:1 mixed solution of PiColorLockTM and Accelerator was treated in each well and reacted for 5 minutes at room temperature. After treating 5 µL of Stabilizer in each well and reacting for 25 minutes at room temperature, the absorbance at 630 nm was measured using SpectraMax M4 (Molecular Devices, USA) to calculate the IC50 value of the compound.
Analysis method: The enzyme activity (%) of each experimental group was calculated as {(average O.D. of compound-treated group - average O.D. of negative control group)/(average O.D. of positive control group - average O.D. of negative control group)} * 100. After preparing a dose-response curve (4-parameter) using the enzyme activity according to the treatment concentration of each compound in GraphPad Prism 9, the 50 % of enzyme inhibitory activity value (IC50) was calculated through non-linear regression analysis. The IC50 results measured for the MAT2A activity inhibitory ability of the compounds according to an embodiment of the present application are shown in Table 2 (+++: more than 1 to 100 nM, ++: more than 100 to 1,000 nM, +: more than 1,000 to 10,000 nM, -: more than 10,000 nM).

For assay [2], the system named is HCT116 (MTAP del) cell line. Nature of the assay: Cell proliferation inhibition in MTAP-deficient cancer cells, WST-1 assay. The format is cell-based. The conditions noted are these: Homo sapiens, HCT-116, 120 hours of drug treatment, maximum concentration 10 µM, read-out: HCT116 MTAP^-/- (IC50, cell proliferation inhibited by 50%). On the procedure:
as §1, §2, §3

T1 sequence (P31153 whole entry): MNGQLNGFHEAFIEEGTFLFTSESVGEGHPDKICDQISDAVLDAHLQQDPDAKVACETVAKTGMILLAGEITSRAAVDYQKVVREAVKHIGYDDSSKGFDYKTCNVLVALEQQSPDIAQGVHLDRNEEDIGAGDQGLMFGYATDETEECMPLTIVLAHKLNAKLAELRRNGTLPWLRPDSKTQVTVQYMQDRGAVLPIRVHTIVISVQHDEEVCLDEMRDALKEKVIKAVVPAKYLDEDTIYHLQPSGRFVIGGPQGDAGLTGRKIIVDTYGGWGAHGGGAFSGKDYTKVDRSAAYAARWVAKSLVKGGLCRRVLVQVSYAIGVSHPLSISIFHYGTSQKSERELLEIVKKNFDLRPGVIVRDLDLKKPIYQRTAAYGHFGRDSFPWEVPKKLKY

With `Cc1c(F)cccc1-n1c(=O)c2nccn2c2ccc(C3CC3)cc21` [Example 13, 7-cyclopropyl-5-(3-fluoro-2-methylphenyl)imidazo[1,2-a]quinoxalin-4(5H)-one], the values for the IC50 (in assay [1]; against MAT2A; in assay [2]) were greater than 10000 nM, 100 to 1000 nM and 100 to 1000 nM, respectively.
As for `COc1ccc2c(c1)n(-c1cccc(F)c1C)c(=O)c1nccn12` [Example 14, 5-(3-fluoro-2-methylphenyl)-7-methoxyimidazo[1,2-a]quinoxalin-4(5H)-one], the figures for the IC50 (in assay [1]; on MAT2A; in assay [2]) were greater than 10000 nM, 100 to 1000 nM and 100 to 1000 nM, respectively.
Regarding `Cc1c(F)cccc1-n1c(=O)c2nccn2c2ccc(OC(F)(F)F)cc21` [Example 15, 5-(3-fluoro-2-methylphenyl)-7-(trifluoromethoxy)imidazo[1,2-a]quinoxalin-4(5H)-one], the values for the IC50 (in assay [1]; on MAT2A; in assay [2]) were greater than 10000 nM, 1000 to 10000 nM and 100 to 1000 nM, respectively.
As for `Cc1ccccc1-n1c(=O)c2nccn2c2ccc(C3CC3)cc21` [Example 16, 7-cyclopropyl-5-(o-tolyl)imidazo[1,2-a]quinoxalin-4(5H)-one], the values for the IC50 (in assay [1]; against MAT2A; in assay [2]) were greater than 10000 nM, 100 to 1000 nM and 100 to 1000 nM, respectively.
As for `COc1ccc2c(c1)n(-c1ccccc1C)c(=O)c1nccn12` [Example 17, 7-methoxy-5-(o-tolyl)imidazo[1,2-a]quinoxalin-4(5H)-one], the IC50 in assay [1] was greater than 10000 nM; against MAT2A, 100 to 1000 nM; in assay [2] it was 100 to 1000 nM.
In the case of `Cc1ccccc1-n1c(=O)c2nccn2c2ccc(C#N)cc21` [Example 18, 4-oxo-5-(o-tolyl)-4,5-dihydroimidazo[1,2-a]quinoxalin-7-carbonitrile], the IC50 was greater than 10000 nM in assay [1], 1000 to 10000 nM against MAT2A and 1000 to 10000 nM in assay [2].
As for `Cc1ccccc1-n1c(=O)c2nccn2c2ccc(OC(F)(F)F)cc21` [Example 19, 5-(o-tolyl)-7-(trifluoromethoxy)imidazo[1,2-a]quinoxalin-4(5H)-one], the IC50 is greater than 10000 nM in assay [1], 1000 to 10000 nM against MAT2A and 1000 to 10000 nM in assay [2].
On to `Cc1ccccc1-n1c(=O)c2nccn2c2ccc(C(F)F)cc21` [Example 22, 7-(difluoromethyl)-5-(o-tolyl)imidazo[1,2-a]quinoxalin-4(5H)-one], for which the IC50 in assay [1] was greater than 10000 nM; against MAT2A it was 1 to 100 nM; in assay [2], 1 to 100 nM.
`O=c1c2nccn2c2ccc(Cl)cc2n1-c1ccccc1Cl` [Example 23, 7-chloro-5-(2-chlorophenyl)imidazo[1,2-a]quinoxalin-4(5H)-one]: the IC50 in assay [1] was greater than 10000 nM; on MAT2A, 1 to 100 nM; in assay [2], 100 to 1000 nM.
`CC(=O)c1ccc2c(c1)n(-c1ccccc1C)c(=O)c1nccn12` [Example 24, 7-acetyl-5-(o-tolyl)imidazo[1,2-a]quinoxalin-4(5H)-one]: the IC50 in assay [1] was greater than 10000 nM; against MAT2A, 100 to 1000 nM; in assay [2] it was greater than 10000 nM.
As to `Cc1ccccc1-n1c(=O)c2nccn2c2ccc(I)cc21` [Example 25, 7-Iodo-5-(o-tolyl)imidazo[1,2-a]quinoxalin-4(5H)-one], the IC50 in assay [1] is 100 to 1000 nM; on MAT2A it was 1 to 100 nM; in assay [2], 1 to 100 nM.
For `Cc1ccccc1-n1c(=O)c2nccn2c2ccc(C(F)(F)F)cc21` [Example 26, 5-(o-tolyl)-7-(trifluoromethyl)imidazo[1,2-a]quinoxalin-4(5H)-one], the IC50 in assay [1] was greater than 10000 nM; on MAT2A, 1 to 100 nM; in assay [2], 1 to 100 nM.
With `Cc1c(F)cccc1-n1c(=O)c2nccn2c2ccc(C#N)cc21` [Example 27, 5-(3-fluoro-2-methylphenyl)-4-oxo-4,5-dihydroimidazo[1,2-a]quinoxalin-7-carbonitrile], the IC50 is greater than 10000 nM in assay [1], 100 to 1000 nM at MAT2A and 100 to 1000 nM in assay [2].

The record behind these values is patent EP4759814A1, “TRICYCLIC COMPOUND AND USE THEREOF AS MAT2A INHIBITOR” (SK Biopharmaceuticals Co., Ltd., priority 2023, dated 2025).
